Consider three molecules from paper PMC6566875, “Synthesis and characterisation of a new benzamide-containing nitrobenzoxadiazole as a GSTP1-1 inhibitor endowed with high stability to metabolic hydrolysis” (Journal of Enzyme Inhibition and Medicinal Chemistry, 2019).

Assay [1] has as its target T1, human GSTP1-1 (Homo sapiens, UniProt P09211).
T1 construct: made in house; host or cells: E. coli Top 10
Kind of assay: GSTP1-1 catalytic activity inhibition (CDNB-GSH conjugation, spectrophotometric). Format: biochemical. The note with it: detergent-free buffer. On the procedure:
The enzymatic activity of GSTP1-1 (20 nM subunits) was spectrophotometrically assayed at 340 nm (ε = 9,600 M^−1 cm^−1) and at 25 °C, by measuring the rate of 1-cloro-2,4-dinitrobenzene (CDNB) conjugation with GSH as a function of time[20]. The assay mixture contained 1 mM GSH and 1 mM CDNB in 1 mL of buffer B (0.1 M potassium phosphate buffer, pH 6.5 containing 0.1 mM EDTA).

The target in assay [2] is T1, human GSTP1-1. The note with it: 1 mM GSH, 1 mM CDNB, pH 6.5, 25 °C; read-out: GSTP1-1 inhibition assay IC50; cited from earlier work.
The next assay addresses T2, TRAF2-GSTP1-1 complex (Homo sapiens, UniProt P09211).
T2 construct: made in house; host or cells: E. coli Top 10 (GSTP1-1); E. coli BL21 (DE3) (TRAF2)
Kind of assay: ELISA for TRAF2-GSTP1-1 protein-protein interaction. The assay is classed as binding. The note with it: 20 µM compound, pH 7.0. On the procedure:
The formation of the TRAF2-GSTP1-1 complex was studied as previously described. Briefly, 200 µL of His-tagged TRAF2 C-terminal domain (0.005 µM in 20 mM Tris–HCl, pH 7.6, containing 150 mM NaCl and 10% glycerol) were added to each well of a 96-well His-Sorb plate (Qiagen, Hilden, Germany) and incubated overnight, at 4 °C, on a rocking platform. Afterwards, wells were washed with PBS and incubated for 30 min with GSTP1-1 (concentration range from 0.1 to 2 µM) in 10 mM potassium phosphate buffer, pH 7.0, containing 0.1 mM EDTA. Incubation with GSTP1-1 was also performed in the presence of 1 (20 µM), 3 (20 µM) or 4 (20 µM), both in the absence and presence of GSH (1 mM). At the end of incubation, the wells were washed with PBS and then filled with 200 µL of a mouse anti-GSTP1-1 antibody (Cell Signalling, Beverly, MA, USA; 1:1000 in TBS containing 0.1% Tween and 5% non-fat dry milk) for 2 h at room temperature. Subsequently, wells were washed with PBS and incubated with an antimouse IgG antibody (Cell Signalling; 1:1000 in TBS containing 0.1% Tween and 5% non-fat dry milk) for 45 min at room temperature. The immunocomplexes were detected by the addiction of 200 µL/well of the 1-Step-Turbo TMB substrate solution (Pierce, Rockford, IL, USA). The reaction was stopped after 10 min by the addition of 50 µL of 2M H2SO4, and the absorbance was measured at 450 nm. Data were analysed by fitting to Equation (1) where ν is the percentage of the saturated binding sites of TRAF2; [P]t and [L]t are the total concentrations of monomeric GSTP1-1 and TRAF2, respectively.
On the technique in general: In an ELISA, binding on a coated surface is turned into a signal by an enzyme label.

Molecules are shown by their SMILES. Read-outs that look alike come from different tables or passages of the source.

T2 sequence (P09211 2-210 limits assumed, one chain of several): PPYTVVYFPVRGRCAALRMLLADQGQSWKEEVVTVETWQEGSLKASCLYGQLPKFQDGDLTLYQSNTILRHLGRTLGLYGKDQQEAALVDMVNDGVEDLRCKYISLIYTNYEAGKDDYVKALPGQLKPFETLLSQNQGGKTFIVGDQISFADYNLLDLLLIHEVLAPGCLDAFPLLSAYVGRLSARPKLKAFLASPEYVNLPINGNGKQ
T1 sequence (P09211 2-210 limits assumed): as the sequence (P09211 2-210 limits assumed, one chain of several) above

Take `O=C(OCCCCCCSc1ccc([N+](=O)[O-])c2nonc12)c1ccccc1` [Compound 3, 6-((7-nitrobenzo[c][1,2,5]oxadiazol-4-yl)thio)hexyl benzoate, reference compound]: at human GSTP1-1 [1] (0.01-20 µM compound), the “Maximal inhibition of GSTP1-1 conjugation activity” value is on record as “no more than 50%”. The IC50 – broadly, the point on the concentration scale where inhibition reaches its midpoint – at human GSTP1-1 [2] is 0.6 ± 0.3 µM.
As for `O=C(NCCCCCCSc1ccc([N+](=O)[O-])c2nonc12)c1ccccc1` [Compound 4, N-(6-((7-nitrobenzo[c][1,2,5]oxadiazol-4-yl)thio)hexyl)benzamide], half-maximal inhibition on human GSTP1-1 [1] (1 mM GSH, 1 mM CDNB, pH 6.5, 25 °C) (IC50) was put at 0.7 ± 0.1 µM. Also, the Ki on human GSTP1-1 [1] (1 mM GSH, 1 mM CDNB, pH 6.5, 25 °C, read-out: Ki app (GSTP1-1 enzyme activity)) amounted to 0.7 ± 0.1 µM. Also, the “Extent of inhibition of GSTP1-1 enzyme activity” value at human GSTP1-1 [1] (0.01-20 µM compound) is on record as “completely inhibited”. Besides, the “Effect on TRAF2-GSTP1-1 complex formation” value on TRAF2-GSTP1-1 complex (absence of GSH) and at TRAF2-GSTP1-1 complex (presence of GSH (1 mM)) was “inhibited TRAF2-GST-P1-1 complex formation” each time.
On to `O=[N+]([O-])c1ccc(SCCCCCCO)c2nonc12` [Compound 1, 6-((7-nitrobenzo[c][1,2,5]oxadiazol-4-yl)thio)hexan-1-ol, reference compound], for which the “Effect on TRAF2-GSTP1-1 complex formation” value on TRAF2-GSTP1-1 complex (presence of GSH (1 mM)) is “overlaps those obtained with 3 and 4”.
